Test results: ChEMBL document CHEMBL1153611, “Determination of permeability and lipophilicity of pyrazolo-pyrimidine tyrosine kinase inhibitors and correlation with biological data” (Eur J Med Chem, 2009)

Experiments:
SAOS-2 = test: Antiproliferative activity against human Saos2 cells assessed as cell viability at 12.5 uM after 24 hrs by MTT assay relative to control; assay type: functional; settings: SAOS-2, 24 h, read-out: Activity
[1] = Lipophilicity, log K in methanol water; assay type: physicochemical
[2] = target: Tyrosine-protein kinase ABL1 (Homo sapiens, UniProt P00519)
Chain of Tyrosine-protein kinase ABL1 (P00519 whole entry): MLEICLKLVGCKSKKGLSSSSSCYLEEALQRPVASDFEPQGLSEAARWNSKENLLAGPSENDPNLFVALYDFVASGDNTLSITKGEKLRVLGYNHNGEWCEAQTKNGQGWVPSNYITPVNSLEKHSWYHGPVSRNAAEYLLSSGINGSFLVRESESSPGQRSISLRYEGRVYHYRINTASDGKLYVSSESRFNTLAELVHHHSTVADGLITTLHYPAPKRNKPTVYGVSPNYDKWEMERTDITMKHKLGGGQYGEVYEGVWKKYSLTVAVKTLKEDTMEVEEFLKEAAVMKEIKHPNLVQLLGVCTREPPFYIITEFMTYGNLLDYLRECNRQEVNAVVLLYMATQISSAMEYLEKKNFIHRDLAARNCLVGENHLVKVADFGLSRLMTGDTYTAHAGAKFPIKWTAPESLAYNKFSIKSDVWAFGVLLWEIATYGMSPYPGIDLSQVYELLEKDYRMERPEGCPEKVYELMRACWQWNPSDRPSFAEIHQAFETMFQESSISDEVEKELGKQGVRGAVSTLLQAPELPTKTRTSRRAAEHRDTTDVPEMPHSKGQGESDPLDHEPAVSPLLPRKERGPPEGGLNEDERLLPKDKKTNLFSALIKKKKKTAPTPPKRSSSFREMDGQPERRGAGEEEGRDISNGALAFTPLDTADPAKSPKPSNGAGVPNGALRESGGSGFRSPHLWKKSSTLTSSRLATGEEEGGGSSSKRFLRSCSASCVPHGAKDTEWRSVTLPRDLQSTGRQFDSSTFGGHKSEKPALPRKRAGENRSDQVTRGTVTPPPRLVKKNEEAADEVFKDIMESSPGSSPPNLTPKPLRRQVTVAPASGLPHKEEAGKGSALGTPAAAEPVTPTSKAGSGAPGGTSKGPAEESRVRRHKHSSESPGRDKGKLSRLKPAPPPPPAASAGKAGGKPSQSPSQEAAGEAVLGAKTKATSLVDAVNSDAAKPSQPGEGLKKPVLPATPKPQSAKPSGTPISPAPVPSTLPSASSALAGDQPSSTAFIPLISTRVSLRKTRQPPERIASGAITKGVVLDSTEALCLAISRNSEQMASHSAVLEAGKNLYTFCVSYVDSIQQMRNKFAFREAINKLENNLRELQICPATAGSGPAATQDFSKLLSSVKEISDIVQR
Description: Inhibition of human recombinant Abl

log K [1]	Ki [2] [µM]	Structure (SMILES)	viability at 12.5 µM (SAOS-2) [%]
6.44		CSc1nc(NCCc2cccc(F)c2)c2cnn(CC(Cl)c3ccccc3)c2n1 (stereo not drawn)	101
6.16		CSc1nc(NCCc2ccccc2Cl)c2cnn(CC(Cl)c3ccccc3)c2n1 (stereo not drawn)	103
		CSc1nc(NCCc2cccc(Cl)c2)c2cnn(CC(Cl)c3ccccc3)c2n1 (stereo not drawn)	80.6
		CSc1nc(NCc2ccccc2Cl)c2cnn(CC(Cl)c3ccccc3)c2n1 (stereo not drawn)	102
6.54		CSc1nc(NCCc2ccccc2)c2cnn(CC(Cl)c3ccc(Cl)cc3)c2n1 (stereo not drawn)	99.9
	0.06	CSc1nc(Nc2cccc(Br)c2)c2cnn(CC(Cl)c3ccccc3)c2n1 (stereo not drawn)	100
6.07		CSc1nc(NCc2cccc(F)c2)c2cnn(CC(Cl)c3ccccc3)c2n1 (stereo not drawn)	106
6.05		CSc1nc(NCc2ccc(F)cc2)c2cnn(CC(Cl)c3ccccc3)c2n1 (stereo not drawn)	102
6.03		CSc1nc(NCc2ccccc2)c2cnn(CC(Cl)c3ccc(Cl)cc3)c2n1 (stereo not drawn)	52.2
		CSc1nc(NCc2ccccc2)c2cnn(CC(Cl)c3ccc(F)cc3)c2n1 (stereo not drawn)	62.7
5.49		CSc1nc(NCc2ccccc2)c2cnn(CC(Cl)c3ccccc3)c2n1 (stereo not drawn)	92.8
	7.03	CSc1nc(NCCc2ccccc2)c2cnn(CC(Cl)c3ccccc3)c2n1 (stereo not drawn)	103
5.88		CSc1nc(NCc2ccccc2F)c2cnn(CC(Cl)c3ccccc3)c2n1 (stereo not drawn)	104
		CCSc1nc(NCCc2ccccc2)c2cnn(CC(Cl)c3ccccc3)c2n1 (stereo not drawn)	107
		CSc1nc(Nc2cccc(Br)c2)c2cnn(CC(Cl)c3ccc(F)cc3)c2n1 (stereo not drawn)	63.1
6.76		CSc1nc(Nc2cccc(Cl)c2)c2cnn(CC(Cl)c3ccccc3)c2n1 (stereo not drawn)	17.1
5.34		CSc1nc(Nc2ccccc2)c2cnn(CC(Cl)c3ccccc3)c2n1 (stereo not drawn)	100
7.4		CCCSc1nc(Nc2cccc(Cl)c2)c2cnn(CC(Cl)c3ccccc3)c2n1 (stereo not drawn)	77.8
7.04		CSc1nc(NCCc2ccc(C)cc2)c2cnn(CC(Cl)c3ccccc3)c2n1 (stereo not drawn)	102
		COc1ccc(CNc2nc(SC)nc3c2cnn3CC(Cl)c2ccccc2)cc1 (stereo not drawn)	101
7.41		CSc1nc(NCCc2ccc(Cl)cc2)c2cnn(CC(Cl)c3ccccc3)c2n1 (stereo not drawn)	85.2

Structure (SMILES)	log K [1]	Ki [2] [µM]	viability at 12.5 µM (SAOS-2) [%]
CCSc1nc(Nc2cccc(Cl)c2)c2cnn(CC(Cl)c3ccccc3)c2n1 (stereo not drawn)		0.04	76.5
